Experiments:
[1] = tested on: patients with primary or secondary brain tumors (peritumoral brain edema); assay: Open-label extension study: dexamethasone dose reduction (net cumulative change in dexamethasone dose, NCD); assay type: in vivo, human
Excerpt: Eligible patients with primary or secondary brain tumors, who had previously participated in one of two randomized, double-blind Phase III trials, were then enrolled in an open-label extension study. […] One of the goals of the open label study was to study the maximum dexamethasone reduction in each patient.

[2] = tested on: patients with primary or secondary brain tumors (peritumoral brain edema); assay: Open-label extension study: adverse events and safety
Procedure: Eligible patients with primary or secondary brain tumors, who had previously participated in one of two randomized, double-blind Phase III trials, were then enrolled in an open-label extension study. As shown in FIG. 1 patients that participated in the Phase III studies that received XERECEPT (corticorelin acetate) 1 mg twice daily and dexamethasone or placebo and dexamethasone or dexamethasone alone were enrolled in the open label extension study. One of the goals of the open label study was to study the maximum dexamethasone reduction in each patient.
In the open-labeled extension study, patients returned at 4-week intervals and completed assessments that included adverse events, dexamethasone dose, and steroid side-effects. […] Net cumulative change in dexamethasone dose (NCD) for each patient was determined by the change in dexamethasone dose from baseline for each visit. The net sum of these changes accounted for duration, direction, and amount of dexamethasone dose change.

[3] = Open-label extension study: serial serum cortisol levels; assay type: in vivo, human; conditions: for AM serum cortisol, one patient: reference range 5-25 μg/dL
Procedure: Serial serum cortisol levels were obtained for 16 patients, and were normal or low in 15 (94%) of the 16 patients. In one patient, AM serum cortisol (reference range 5-25 μg/dL) was low on a dexamethasone dose of 2.5 mg/d, moderately elevated (39 μg/dL) after discontinuation of dexamethasone for 4 weeks, then normalized (25 μg/dL) after 16 weeks off dexamethasone, and again low (0.4 μg/dL) after 8 weeks on dexamethasone at 7.0-8.0 mg/d.

[4] = tested on: patients with primary or secondary brain tumors (peritumoral brain edema); assay: Open-label extension study: improvement of steroid-related conditions; assay type: in vivo, human
Procedure: In these 8 patients, the mean NCD was −9.8 mg/d; the median NCD was −6.5 mg/d (0 to −36 mg/d).
Mean baseline dexamethasone dose was similar in patients with reduced NCD (6.2 mg) and those with increased NCD (6.3 mg). Improvement or resolution of baseline steroid-related conditions correlated with NCD. Such improvement was observed only in patients whose NCD was reduced or those who took no dexamethasone from baseline to date extraction, as shown in FIG. 3. FIG. 3 is flow chart depicting the net cumulative change in dexamethasone dose and steroid-related adverse events. In contrast, worsening or new onset of steroid-related AEs was confined to patients whose NCD was increased, with one exception—a patient who initiated dexamethasone ≦2 weeks prior to baseline. Improvement was most frequently observed in Cushingoid appearance (5 AEs) myopathy (4 AEs), and insomnia (2 AEs) followed by weight gain, bloating, pedal edema, polyuria, skin striae, and Herpes zoster rash (1 AE each). Median time to initial improvement of steroid-related conditions was 12 weeks (1 to 36 weeks).

[5] = tested on: patients with primary or secondary brain tumors (peritumoral brain edema); conditions: interim report (SNO 2006); 20 subjects on corticorelin acetate for at least 4 weeks; cited from earlier work
[6] = tested on: patients with primary or secondary brain tumors (peritumoral brain edema); conditions: interim report (SNO 2006); 8 of 18 subjects with such conditions at baseline; cited from earlier work
RG2 glioma tumor cells = conditions: rats, cited from earlier work
[7] = tested on: intracerebral W256 mammary carcinomas; conditions: rats, even at the study's lowest dose of corticorelin acetate; cited from earlier work
[8] = tested on: vascular leakage of plasma constituents; conditions: systemic administration; response to injury or inflammatory mediators; cited from earlier work
[9] = tested on: patients with peritumoral brain edema; conditions: cited from earlier work

For `CC[C@H](C)[C@H](NC(=O)[C@@H](NC(=O)[C@H](CCC(=O)O)NC(=O)[C@H](CCSC)NC(=O)[C@H](CC(C)C)NC(=O)[C@H](CCCCN)NC(=O)[C@H](CCCNC(=N)N)NC(=O)[C@H](CC(N)=O)NC(=O)[C@H](CO)NC(=O)[C@H](Cc1c[nH]cn1)NC(=O)[C@H](C)NC(=O)[C@H](CCC(N)=O)NC(=O)[C@H](CCC(N)=O)NC(=O)[C@H](C)NC(=O)[C@H](CC(C)C)NC(=O)[C@H](CCC(N)=O)NC(=O)[C@H](CCC(=O)O)NC(=O)[C@H](C)NC(=O)[C@H](CCCNC(=N)N)NC(=O)[C@H](C)NC(=O)[C@H](CCSC)NC(=O)[C@H](CCC(=O)O)NC(=O)[C@H](CC(C)C)NC(=O)[C@@H](NC(=O)[C@H](CCC(=O)O)NC(=O)[C@H](CCCNC(=N)N)NC(=O)[C@H](CC(C)C)NC(=O)[C@H](CC(C)C)NC(=O)[C@H](Cc1c[nH]cn1)NC(=O)[C@H](Cc1ccccc1)NC(=O)[C@@H](NC(=O)[C@H](CC(C)C)NC(=O)[C@H](CC(=O)O)NC(=O)[C@H](CC(C)C)NC(=O)[C@H](CO)NC(=O)[C@@H](NC(=O)[C@@H]1CCCN1C(=O)[C@@H]1CCCN1C(=O)[C@H](CCC(=O)O)NC(=O)[C@H](CCC(=O)O)NC(=O)[C@@H](N)CO)[C@@H](C)CC)[C@@H](C)O)C(C)C)[C@@H](C)CC)C(N)=O` [corticorelin acetate], the “Typically refractory patients who successfully reduced dexamethasone” value ([1]; 5 of the 8 patients 55 years of age) was 62.5%, the “Typically refractory patients who successfully reduced dexamethasone” value ([1]; 7 of the 10 patients with recurrent brain tumor) was 70% and the “Patients with increased NCD” value ([1]; 7 of the 20 patients) was 35%. For the same compound, the “Mean NCD” value ([1]; 7 patients whose NCD was increased) was “+10.7 mg/d”, the “Median NCD” value ([1]; 7 patients whose NCD was increased, range +2.0 mg/d to +46.0 mg/d) was “+5.0 mg/d” and the “Median maximum percent change from baseline in dexamethasone dose” value ([1]; 7 patients with increased NCD, range +50 to +200%) was “+100%”. The “Typically refractory patients who successfully reduced dexamethasone” value ([1]; 11 of the 16 patients in whom prior dexamethasone reductions had been unsuccessful) was 69%, the “Patients with reduced NCD” value ([1]; 11 of the 20 patients) was 55% and the “Mean NCD” value ([1]; 11 patients whose NCD was reduced) was -10.7 mg/day. The “Median NCD” value ([1]; 11 patients whose NCD was reduced, range −0.5 to −36 mg/d) was -3.0 mg/day, the “Median maximum percent change from baseline in dexamethasone dose” value ([1]; 11 patients with reduced NCD, range −11 to −100%) was −87% and the “Patients discontinuing dexamethasone altogether” value ([1]; of the 11 patients with reduced NCD) was 5 patients. For the same compound, the “Exposure to dexamethasone and steroid-related side-effects” value ([1]; patients with peritumoral brain edema) was “associated with reduced exposure to dexamethasone and improvement in steroid-related side-effects”, the “Patients who took 0.0 mg/d dexamethasone from baseline to ≧24 weeks” value ([1]; two of 20 patients) was 10% and the “Deaths: relation to study drug” value ([2]; four patients died between 1-40 days after the last dose) was “all because of conditions not related to study drug”. For the same compound, the “All adverse events, Mild” value ([2]; in vivo) was 3 (15.0) n (%), the “All adverse events, Moderate” value ([2]; in vivo) was 3 (15.0) n (%) and the “All adverse events, Severe” value ([2]; in vivo) was 1 (5.0) n (%). For the same compound, the “All adverse events, all severities (last column, no head)” value ([2]; in vivo) was 7 (35.0) n (%), the “Eyelid edema, Mild” value ([2]; in vivo) was 1 (5.0) n (%) and the “Eyelid edema, all severities (last column, no head)” value ([2]; in vivo) was 1 (5.0) n (%). The “Flushing, Mild” value ([2]; in vivo) was 3 (15.0) n (%), the “Flushing, Moderate” value ([2]; in vivo) was 2 (10.0) n (%) and the “Flushing, all severities (last column, no head)” value ([2]; in vivo) was 5 (25.0) n (%). The “Headache, Severe” value ([2]; in vivo) was 1 (5.0) n (%), the “Headache, all severities (last column, no head)” value ([2]; in vivo) was 1 (5.0) n (%) and the “Injection site erythema, Mild” value ([2]; in vivo) was 4 (20.0) n (%). The “Injection site erythema, Moderate” value ([2]; in vivo) was 1 (5.0) n (%), the “Injection site erythema, all severities (last column, no head)” value ([2]; in vivo) was 5 (25.0) n (%) and the “Injection site reaction, Mild” value ([2]; in vivo) was 2 (10.0) n (%). The “Injection site reaction, Moderate” value ([2]; in vivo) was 1 (5.0) n (%), the “Injection site reaction, all severities (last column, no head)” value ([2]; in vivo) was 3 (15.0) n (%) and the “Nausea, Moderate” value ([2]; in vivo) was 1 (5.0) n (%). For the same compound, the “Nausea, all severities (last column, no head)” value ([2]; in vivo) was 1 (5.0) n (%), the “Number of SAEs” value ([2]; in vivo) was 12 SAEs and the “Photophobia, Moderate” value ([2]; in vivo) was 1 (5.0) n (%). The “Photophobia, all severities (last column, no head)” value ([2]; in vivo) was 1 (5.0) n (%), the “SAEs attributed to corticorelin acetate” value ([2]; in vivo) was “none of which were attributed to corticorelin acetate” and the “Safety and tolerability of long-term treatment” value ([2]; in vivo) was “safe and well-tolerated”. The “Patients with normal or low serial serum cortisol levels” value ([3]; 15 of the 16 patients) was 94%, the “AM serum cortisol, one patient” value ([3]; after 8 weeks on dexamethasone at 7.0-8.0 mg/d, low) was 0.4 µg/dL and the “AM serum cortisol, one patient” value ([3]; after 16 weeks off dexamethasone, normalized) was 25 µg/dL. For the same compound, the “AM serum cortisol, one patient” value ([3]; after discontinuation of dexamethasone for 4 weeks, moderately elevated) was 39 µg/dL, the Induction of hypercortisolism ([3]; dosing up to 48 weeks) was “did not induce hypercortisolism” and the “Patients with improvement or resolution of steroid-related conditions” value ([4]; 8 of the 18 patients with such conditions at baseline, 17 conditions) was 45%. For the same compound, the “Mean NCD” value ([4]; 8 patients with improvement or resolution of steroid-related conditions) was -9.8 mg/day, the “Median NCD” value ([4]; 8 patients with improvement or resolution of steroid-related conditions, range 0 to −36 mg/d) was -6.5 mg/day and the “Median time to initial improvement of steroid-related conditions” value ([4]; range 1 to 36 weeks) was 12 weeks. The “Improvement observed in Cushingoid appearance” value ([4]; steroid-related conditions) was 5 AEs, the “Improvement observed in insomnia” value ([4]; steroid-related conditions) was 2 AEs and the “Improvement observed in myopathy” value ([4]; steroid-related conditions) was 4 AEs. For the same compound, the “Improvement observed in weight gain, bloating, pedal edema, polyuria, skin striae, and Herpes zoster rash” value ([4]; steroid-related conditions) was 1 AE each, the “Subjects who reduced their dexamethasone dosage during the study” value [5] was 11 subjects and the “Subjects who took no concomitant dexamethasone” value [5] was 2 subjects. For the same compound, the “Subjects with improvement or resolution of steroid related conditions” value [6] was 45%, the “Survival versus dexamethasone alone” value (RG2 glioma tumor cells; administered chronically) was “significantly prolonged survival” and the “Effect on tumoral and peritumoral edema” value (RG2 glioma tumor cells; intravenous infusion) was “reduce tumoral and peritumoral edema”. The “Effect on the anti-edematous effect of dexamethasone” value [7] was “enhance substantially the anti-edematous effect of dexamethasone”, the “Effect on vascular leakage and tissue swelling” value [8] was “inhibit vascular leakage of plasma constituents and associated tissue swelling” and the “Side-effects of intravenous administration” value ([9]; human, in vivo, iv) was “some side-effects including headache, hypotension, facial flushing, diarrhea, shortness of breath, nausea and lethargy”. For the same compound, the Tolerability in humans ([9]; human, in vivo, iv) was “well-tolerated” and the “Neurological symptoms or physical findings” value ([9]; intravenous bolus and continuous infusions) was “showed improvement in neurological symptoms or physical findings”.

Reference: patent US20120077744A1, “STEROID-SPARING METHODS OF TREATING BRAIN EDEMA” (Neutron Limited, priority 2007, published 2012)
